Measurements published in publication PMC10778198, “First-in-Human Dose-Escalation Study of the Novel Oral Depsipeptide Class I-Targeting HDAC Inhibitor Bocodepsin (OKI-179) in Patients with Advanced Solid Tumors” (Cancers, 2023).

Tested on: patients with advanced solid tumors
Test: phase I dose escalation: safety, DLT, MTD, RP2D (CTCAE v. 5)
Assay type: in vivo
Conditions: 4:3
From the text: Subsequent dosing cohorts were enrolled using a standard 3 + 3 design.
If any patient in any cohort of three patients developed a DLT during cycle 1, an additional three patients were recruited to expand the cohort to up to six evaluable patients. If two or more patients in any expanded cohort developed a DLT, this dose was considered non-tolerated, and dose escalation was discontinued. The MTD was defined as the highest dose level for which no more than one of six patients experienced a DLT.
Patients were continuously evaluated for adverse events throughout the study using the Common Terminology Criteria of Adverse Events (CTCAE v. 5). The patients underwent a clinical history and physical examination, an ECOG PS, a complete blood count (CBCs), chemistry, coagulation studies, urinalysis, a serum pregnancy test (as applicable), a triplicate ECG, an ophthalmology examination, and baseline tumor assessment at screening. During cycle 1, weekly history and physical examination, CBC, chemistry, coagulation parameters, urinalysis, and triplicate ECGs were performed; in subsequent cycles, weekly labs were limited to a CBC. Repeat ophthalmology examinations were performed at cycle 3, day 1, and at the end of treatment. Repeat tumor assessment was performed every 2 cycles (6 weeks) in accordance with RECIST 1.1.

For CC(C)[C@H](N)C(=O)SCC/C=C/[C@@H]1CC(=O)NCc2nc(cs2)C(=O)NC(C)(C)C(=O)N[C@@H](C(C)C)C(=O)O1 [OKI-179, Bocodepsin], which “TEAE: Dyspnea” value (270 mg (n = 3), G2) is on record?
Its value is 0 n (%).

What about the “TEAE: ECG QT prolonged” value (270 mg (n = 3), G2) of the same molecule?
Its value is 0 n (%).

What about the “TEAE: Fatigue” value (270 mg (n = 3), G2) of the same molecule?
The value was 1 (33) n (%).

And the “TEAE: Headache” value (270 mg (n = 3), G2)?
The value was 0 n (%).

And the “TEAE: Hypokalaemia” value (270 mg (n = 3), G2)?
The value was 0 n (%).

And the “TEAE: Muscular weakness” value (270 mg (n = 3), G2)?
Its value is 0 n (%).

And the “TEAE: Nasal congestion” value (270 mg (n = 3), G2)?
The value was 0 n (%).

And the “TEAE: Nausea” value (270 mg (n = 3), G2)?
The value was 0 n (%).

And the “TEAE: Platelet count decreased” value (270 mg (n = 3), G2)?
The value was 0 n (%).

What about the “TEAE: Proteinuria” value (270 mg (n = 3), G2) of the same molecule?
Its value is 0 n (%).

And the “TEAE: Pyrexia” value (270 mg (n = 3), G2)?
Its value is 0 n (%).

And the “TEAE: Vomiting” value (270 mg (n = 3), G2)?
The value was 0 n (%).

And the “TEAE: Weight decreased” value (270 mg (n = 3), G2)?
The value was 0 n (%).

What about the “TEAE: Anemia” value (270 mg (n = 3), G3) of the same molecule?
The value was 1 (33) n (%).

And the “TEAE: Back pain” value (270 mg (n = 3), G3)?
Its value is 0 n (%).

And the “TEAE: Cough” value (270 mg (n = 3), G3)?
Its value is 0 n (%).

What about the “TEAE: Decreased appetite” value (270 mg (n = 3), G3) of the same molecule?
The value was 0 n (%).

What about the “TEAE: Diarrhea” value (270 mg (n = 3), G3) of the same molecule?
Its value is 0 n (%).

What about the “TEAE: Dyspnea” value (270 mg (n = 3), G3) of the same molecule?
The value was 0 n (%).

What about the “TEAE: ECG QT prolonged” value (270 mg (n = 3), G3) of the same molecule?
Its value is 0 n (%).

What about the “TEAE: Fatigue” value (270 mg (n = 3), G3) of the same molecule?
The value was 0 n (%).

What about the “TEAE: Headache” value (270 mg (n = 3), G3) of the same molecule?
Its value is 0 n (%).

And the “TEAE: Hypokalaemia” value (270 mg (n = 3), G3)?
The value was 0 n (%).

What about the “TEAE: Muscular weakness” value (270 mg (n = 3), G3) of the same molecule?
The value was 0 n (%).

What about the “TEAE: Nasal congestion” value (270 mg (n = 3), G3) of the same molecule?
The value was 0 n (%).

What about the “TEAE: Nausea” value (270 mg (n = 3), G3) of the same molecule?
Its value is 0 n (%).

And the “TEAE: Platelet count decreased” value (270 mg (n = 3), G3)?
Its value is 0 n (%).

And the “TEAE: Proteinuria” value (270 mg (n = 3), G3)?
The value was 0 n (%).

And the “TEAE: Pyrexia” value (270 mg (n = 3), G3)?
The value was 1 (33) n (%).

And the “TEAE: Vomiting” value (270 mg (n = 3), G3)?
Its value is 0 n (%).

And the “TEAE: Weight decreased” value (270 mg (n = 3), G3)?
The value was 0 n (%).

What about the “TEAE: Anemia” value (350 mg (n = 3), G1) of the same molecule?
Its value is 1 (33) n (%).

What about the “TEAE: Back pain” value (350 mg (n = 3), G1) of the same molecule?
The value was 0 n (%).

What about the “TEAE: Cough” value (350 mg (n = 3), G1) of the same molecule?
Its value is 0 n (%).

And the “TEAE: Decreased appetite” value (350 mg (n = 3), G1)?
Its value is 0 n (%).

What about the “TEAE: Diarrhea” value (350 mg (n = 3), G1) of the same molecule?
The value was 0 n (%).

What about the “TEAE: Dyspnea” value (350 mg (n = 3), G1) of the same molecule?
The value was 1 (33) n (%).

What about the “TEAE: ECG QT prolonged” value (350 mg (n = 3), G1) of the same molecule?
The value was 0 n (%).

And the “TEAE: Fatigue” value (350 mg (n = 3), G1)?
The value was 0 n (%).

And the “TEAE: Headache” value (350 mg (n = 3), G1)?
Its value is 0 n (%).

And the “TEAE: Hypokalaemia” value (350 mg (n = 3), G1)?
Its value is 0 n (%).

What about the “TEAE: Muscular weakness” value (350 mg (n = 3), G1) of the same molecule?
Its value is 0 n (%).

And the “TEAE: Nausea” value (350 mg (n = 3), G1)?
Its value is 1 (33) n (%).

And the “TEAE: Platelet count decreased” value (350 mg (n = 3), G1)?
The value was 2 (67) n (%).

And the “TEAE: Proteinuria” value (350 mg (n = 3), G1)?
The value was 0 n (%).

What about the “TEAE: Pyrexia” value (350 mg (n = 3), G1) of the same molecule?
The value was 0 n (%).

What about the “TEAE: Vomiting” value (350 mg (n = 3), G1) of the same molecule?
The value was 0 n (%).

What about the “TEAE: Weight decreased” value (350 mg (n = 3), G1) of the same molecule?
The value was 0 n (%).

What about the “TEAE: Anemia” value (350 mg (n = 3), G2) of the same molecule?
Its value is 0 n (%).

And the “TEAE: Back pain” value (350 mg (n = 3), G2)?
The value was 0 n (%).

And the “TEAE: Cough” value (350 mg (n = 3), G2)?
The value was 0 n (%).

And the “TEAE: Decreased appetite” value (350 mg (n = 3), G2)?
Its value is 1 (33) n (%).

What about the “TEAE: Diarrhea” value (350 mg (n = 3), G2) of the same molecule?
The value was 0 n (%).

And the “TEAE: Dyspnea” value (350 mg (n = 3), G2)?
Its value is 0 n (%).

What about the “TEAE: ECG QT prolonged” value (350 mg (n = 3), G2) of the same molecule?
Its value is 0 n (%).

What about the “TEAE: Fatigue” value (350 mg (n = 3), G2) of the same molecule?
The value was 0 n (%).

What about the “TEAE: Headache” value (350 mg (n = 3), G2) of the same molecule?
The value was 0 n (%).

And the “TEAE: Hypokalaemia” value (350 mg (n = 3), G2)?
The value was 1 (33) n (%).

What about the “TEAE: Muscular weakness” value (350 mg (n = 3), G2) of the same molecule?
The value was 1 (33) n (%).

What about the “TEAE: Nasal congestion” value (350 mg (n = 3), G2) of the same molecule?
Its value is 0 n (%).

What about the “TEAE: Nausea” value (350 mg (n = 3), G2) of the same molecule?
Its value is 1 (33) n (%).

And the “TEAE: Platelet count decreased” value (350 mg (n = 3), G2)?
The value was 0 n (%).

What about the “TEAE: Proteinuria” value (350 mg (n = 3), G2) of the same molecule?
The value was 0 n (%).

And the “TEAE: Pyrexia” value (350 mg (n = 3), G2)?
The value was 0 n (%).

What about the “TEAE: Vomiting” value (350 mg (n = 3), G2) of the same molecule?
Its value is 1 (33) n (%).

And the “TEAE: Weight decreased” value (350 mg (n = 3), G2)?
The value was 0 n (%).

What about the “TEAE: Anemia” value (350 mg (n = 3), G3) of the same molecule?
Its value is 0 n (%).

What about the “TEAE: Back pain” value (350 mg (n = 3), G3) of the same molecule?
The value was 1 (33) n (%).

And the “TEAE: Cough” value (350 mg (n = 3), G3)?
Its value is 0 n (%).

What about the “TEAE: Decreased appetite” value (350 mg (n = 3), G3) of the same molecule?
The value was 0 n (%).

And the “TEAE: Diarrhea” value (350 mg (n = 3), G3)?
The value was 0 n (%).

What about the “TEAE: Dyspnea” value (350 mg (n = 3), G3) of the same molecule?
Its value is 0 n (%).

What about the “TEAE: ECG QT prolonged” value (350 mg (n = 3), G3) of the same molecule?
The value was 1 (33) n (%).

What about the “TEAE: Fatigue” value (350 mg (n = 3), G3) of the same molecule?
The value was 1 (33) n (%).

And the “TEAE: Headache” value (350 mg (n = 3), G3)?
Its value is 0 n (%).
